Measured values published in patent publication US7776833B2, “Use of cyclic bioisosters of purine system derivatives for treating diseases produced by disorders of niterergic and dopaminergic systems” (priority 2003, dated 2010).

What was measured:
Type in all cases: in vivo, Wistar rats
[1] = test system: apomorphine-dependent erection; assay: Apomorphine-dependent erection in low-potency rats; conditions: compound 5 x 10 mg/kg intraperitoneally every 48 hours + apomorphine 0.1 mg/kg subcutaneously; 20 minutes monitoring; one value for the two compounds of the line
Excerpt: One of the mechanisms regulating the sexual function of mammals is associated with functioning of the dopaminergic system of the brain. It is well known that a non-selective D1/D2 agonist apomorphine in low doses causes penile erection in rodents (Giuliano F., Allard J. Dopamine and male sexual function. Eur. Urol., 2001, 40 (6), 601-608; Giuliano F., Allard J., Rampin O. et. al. Pro-erectile effect of systemic apomorphine: existence of a spinal site action. J. Urol., 2002, 167 (1), 402-406; Brien S. E., Smallegange C., Gofton W. T., et. al. Development of a rat model of sexual performance anxiety: effect of behavioral and pharmacological hyperadrenergic stimulation on apomorphine-induced erections. Int. J. Impot. Res., 2002, 14 (2), 107-115.). In this connection, we have studied the effects of the compounds according to the invention on apomorphine-dependent erection in rats.
Nine groups of adult male Wistar rats weighing 350-450 g maintained at the normal (not inverted) light cycle were used in the experiments. To study the effect of the compounds on the sexual function, low-potency animals with a single erection were selected. Control group No. 1 (n=7) was composed of animals not injected with the compounds according to the invention. The animals of groups Nos. 2-9 (n=7) were injected with one of the compounds according to the invention selected from the group of compounds 2, 8, 9, 15, 19, 25, 31, 36, intraperitoneally in a course of 5 injections at a dose of 10 mg/kg with an interval between the injections 48 hours. Apomorphine was dissolved in 0.1% aqueous solution of ascorbic acid and then was injected to all animal subcutaneously at a dose of 0.1 mg/kg during 24-28 hours after the last injection of the compounds according to the invention. The monitoring of sexual activity was made individually for each animal immediately after the administration of apomorphine; the monitoring time was 20 minutes. The following indices were registered: the time of beginning of the first erection, time intervals between the erections, the number of erections for the entire period of observation.
The statistical analysis of the results was made using T-test and ξ-square test. The results are given in Table 3 as means±standard error of means.

[2] = test system: physical dependence from morphine (morphine abstinence); assay: Morphine abstinence syndrome, signs scored in the open field test; conditions: Morphine − (morphine + compound); compound 3 x 20 mg/kg intramuscularly; one value for the three compounds
[3] = test system: nitrites and nitrates (NOx-); assay: Measurement of nitrates/nitrites (NOx-) in brain regions after the morphine abstinence experiment; conditions: 3 x 20 mg/kg intramuscularly
How it was run: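 Rat brain regions homogenized in 20 mM HEPES pH 7.5 at 4 °C; deproteinized supernatants treated with nitrate reductase, 25 μM NADPH, 25 μM FAD (37 °C, 30 min), then DAN in acid; naphthotriazole fluorescence (ex 365/em 405 nm) against sodium nitrate standard, expressed as nmol/mg protein (Bradford).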

[4] = test system: nitric oxide synthase (NOS); assay: Nitric oxide synthase activity in brain regions, radiometric [3H]L-citrulline method; conditions: 3 x 20 mg/kg intramuscularly
How it was run: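 Rat cortex, hippocampus, mesencephalon, striatum, brainstem, hypothalamus and cerebellum were homogenized in 20 mM HEPES pH 7.5, and the 11000 g supernatant was incubated 15-60 min at 37 °C with [3H]L-arginine, 0.2 mM CaCl2, FAD, FMN, NADPH and BH4. [3H]L-citrulline was counted after Dowex removal of arginine. Ca2+-dependent/independent activity was split using EDTA ± L-NAME, per mg Bradford protein.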

[5] = Groups Nos. 3-14, compound without morphine, one value for all 12 compounds
[6] = Morphine + compound, one value for the three compounds

Nc1ncnc2c(=O)n([C@@H]3O[C@H](CO)[C@@H](O)[C@H]3O)[nH]c(=O)c12.[Na] [Compound 31, sodium salt of 4-amino-7-(β-D-ribofuranosile)pyrimido[4,5-d]-6H-pyridazine-5,8-dione]
Latent period of first erection [1]: 5.12 ± 0.24 min
Number of erection for the entire period of observation [1]: 3.32 ± 0.31
Time between 1st and 2nd erections [1]: 3.34 ± 0.69 min
Time between 3rd and 2nd erections [1]: 5.02 ± 1.01 min

O=c1[nH][nH]c(=O)c2nccnc12.[Li] [Compound 25, lithium salt of pyrazino[2,3-d]-6H-pyridazine-5,8-dione]
Latent period of first erection [1]: 5.24 ± 0.19 min
Number of erection for the entire period of observation [1]: 3.29 ± 0.27
Time between 1st and 2nd erections [1]: 3.75 ± 0.64 min
Time between 3rd and 2nd erections [1]: 5.12 ± 0.87 min

Nc1ccc2c(=O)n([C@@H]3O[C@H](CO)[C@@H](O)[C@H]3O)[nH]c(=O)c2c1.[Na] [Compound 11, sodium salt of 6-amino-2-(β-D-ribofuranosile)benzo[d]-3H-pyridazine-1,4-dione]
Authentic differences (ξ-square criterion) in appearance of signs of abstinence: <<Wet dog>> shakes [2]: 0.7562
Authentic differences (ξ-square criterion) in appearance of signs of abstinence: Aggression [2]: 0.8456
Authentic differences (ξ-square criterion) in appearance of signs of abstinence: Convulsions [2]: 0.7546
Authentic differences (ξ-square criterion) in appearance of signs of abstinence: Diarrhea [2]: 0.0032
Authentic differences (ξ-square criterion) in appearance of signs of abstinence: Dyspnea [2]: 0.0834
Authentic differences (ξ-square criterion) in appearance of signs of abstinence: Forelimb jogging [2]: 0.8217
Authentic differences (ξ-square criterion) in appearance of signs of abstinence: Grit with teeth [2]: 0.8652
Authentic differences (ξ-square criterion) in appearance of signs of abstinence: Mastication [2]: 0.1032
Authentic differences (ξ-square criterion) in appearance of signs of abstinence: Piloerection [2]: 0.2567
Authentic differences (ξ-square criterion) in appearance of signs of abstinence: Ptosis [2]: 0.0320
Authentic differences (ξ-square criterion) in appearance of signs of abstinence: Rhinorrhea [2]: 0.4032
Authentic differences (ξ-square criterion) in appearance of signs of abstinence: Squeak when touched [2]: 0.1342
Nitrites, brainstem [3, 5]: 6.31 ± 0.58 nmol/mg of protein
Nitrites, cerebellum [3, 5]: 6.66 ± 0.63 nmol/mg of protein
Nitrites, cerebral cortex [3, 5]: 4.31 ± 0.37 nmol/mg of protein
Nitrites, hippocampus [3, 5]: 6.47 ± 0.72 nmol/mg of protein
Nitrites, hypothalamus [3, 5]: 6.77 ± 0.83 nmol/mg of protein
Nitrites, midbrain [3, 5]: 6.65 ± 0.70 nmol/mg of protein
Nitrites, striatum [3, 5]: 6.11 ± 0.29 nmol/mg of protein
Nitrites, brainstem [3, 6]: 6.99 ± 0.82 nmol/mg of protein
Nitrites, cerebellum [3, 6]: 5.85 ± 0.47 nmol/mg of protein
Nitrites, cerebral cortex [3, 6]: 4.93 ± 0.39 nmol/mg of protein
Nitrites, hippocampus [3, 6]: 5.24 ± 0.49 nmol/mg of protein
Nitrites, hypothalamus [3, 6]: 6.91 ± 0.58 nmol/mg of protein
Nitrites, midbrain [3, 6]: 5.75 ± 0.39 nmol/mg of protein
Nitrites, striatum [3, 6]: 3.57 ± 0.42 nmol/mg of protein
Activity of NOS, hippocampus [4, 5]: 3.09 ± 0.16 nmol/min/mg of protein
Activity of NOS, hypothalamus [4, 5]: 5.45 ± 0.24 nmol/min/mg of protein
Activity of NOS, midbrain [4, 5]: 2.60 ± 0.29 nmol/min/mg of protein
Activity of NOS, striatum [4, 5]: 1.26 ± 0.08 nmol/min/mg of protein
Activity of NOS, hippocampus [4, 6]: 2.51 ± 0.19 nmol/min/mg of protein
Activity of NOS, hypothalamus [4, 6]: 5.36 ± 0.33 nmol/min/mg of protein
Activity of NOS, midbrain [4, 6]: 1.99 ± 0.29 nmol/min/mg of protein
Activity of NOS, striatum [4, 6]: 1.29 ± 0.09 nmol/min/mg of protein

O=c1[nH][nH]c(=O)c2ncncc12.[Li] [Compound 35, lithium salt of pyrimido[4,5-d]-6H-pyridazine-5,8-dione]
Authentic differences (ξ-square criterion) in appearance of signs of abstinence: <<Wet dog>> shakes [2]: 1.0000
Authentic differences (ξ-square criterion) in appearance of signs of abstinence: Aggression [2]: 0.8456
Authentic differences (ξ-square criterion) in appearance of signs of abstinence: Convulsions [2]: 0.5578
Authentic differences (ξ-square criterion) in appearance of signs of abstinence: Diarrhea [2]: 0.0001
Authentic differences (ξ-square criterion) in appearance of signs of abstinence: Dyspnea [2]: 0.0685
Authentic differences (ξ-square criterion) in appearance of signs of abstinence: Forelimb jogging [2]: 0.9321
Authentic differences (ξ-square criterion) in appearance of signs of abstinence: Grit with teeth [2]: 0.7003
Authentic differences (ξ-square criterion) in appearance of signs of abstinence: Mastication [2]: 0.1888
Authentic differences (ξ-square criterion) in appearance of signs of abstinence: Piloerection [2]: 0.2345
Authentic differences (ξ-square criterion) in appearance of signs of abstinence: Ptosis [2]: 0.0232
Authentic differences (ξ-square criterion) in appearance of signs of abstinence: Rhinorrhea [2]: 0.2935
Authentic differences (ξ-square criterion) in appearance of signs of abstinence: Squeak when touched [2]: 0.2035
Nitrites, brainstem [3, 5]: 6.31 ± 0.58 nmol/mg of protein
Nitrites, cerebellum [3, 5]: 6.66 ± 0.63 nmol/mg of protein
Nitrites, cerebral cortex [3, 5]: 4.31 ± 0.37 nmol/mg of protein
Nitrites, hippocampus [3, 5]: 6.47 ± 0.72 nmol/mg of protein
Nitrites, hypothalamus [3, 5]: 6.77 ± 0.83 nmol/mg of protein
Nitrites, midbrain [3, 5]: 6.65 ± 0.70 nmol/mg of protein
Nitrites, striatum [3, 5]: 6.11 ± 0.29 nmol/mg of protein
Nitrites, brainstem [3, 6]: 6.87 ± 0.81 nmol/mg of protein
Nitrites, cerebellum [3, 6]: 5.93 ± 0.54 nmol/mg of protein
Nitrites, cerebral cortex [3, 6]: 4.84 ± 0.31 nmol/mg of protein
Nitrites, hippocampus [3, 6]: 5.31 ± 0.33 nmol/mg of protein
Nitrites, hypothalamus [3, 6]: 6.77 ± 0.46 nmol/mg of protein
Nitrites, midbrain [3, 6]: 5.95 ± 0.52 nmol/mg of protein
Nitrites, striatum [3, 6]: 3.57 ± 0.42 nmol/mg of protein
Activity of NOS, hippocampus [4, 5]: 3.09 ± 0.16 nmol/min/mg of protein
Activity of NOS, hypothalamus [4, 5]: 5.45 ± 0.24 nmol/min/mg of protein
Activity of NOS, midbrain [4, 5]: 2.60 ± 0.29 nmol/min/mg of protein
Activity of NOS, striatum [4, 5]: 1.26 ± 0.08 nmol/min/mg of protein
Activity of NOS, hippocampus [4, 6]: 2.65 ± 0.15 nmol/min/mg of protein
Activity of NOS, hypothalamus [4, 6]: 5.56 ± 0.34 nmol/min/mg of protein
Activity of NOS, midbrain [4, 6]: 1.89 ± 0.27 nmol/min/mg of protein
Activity of NOS, striatum [4, 6]: 1.34 ± 0.09 nmol/min/mg of protein

O=c1[nH]n([C@@H]2O[C@H](CO)[C@@H](O)[C@H]2O)c(=O)c2nccc(O)c12.[Na] [Compound 4, isodium salt of 4-hydroxy-7-(β-D-ribofuranosile)pyrido[2,3-d]-6H-pyridazine-5,8-dione]
Authentic differences (ξ-square criterion) in appearance of signs of abstinence: <<Wet dog>> shakes [2]: 1.0000
Authentic differences (ξ-square criterion) in appearance of signs of abstinence: Aggression [2]: 0.8327
Authentic differences (ξ-square criterion) in appearance of signs of abstinence: Convulsions [2]: 0.7821
Authentic differences (ξ-square criterion) in appearance of signs of abstinence: Diarrhea [2]: 0.0046
Authentic differences (ξ-square criterion) in appearance of signs of abstinence: Dyspnea [2]: 0.0722
Authentic differences (ξ-square criterion) in appearance of signs of abstinence: Forelimb jogging [2]: 0.7821
Authentic differences (ξ-square criterion) in appearance of signs of abstinence: Grit with teeth [2]: 0.7144
Authentic differences (ξ-square criterion) in appearance of signs of abstinence: Mastication [2]: 0.1888
Authentic differences (ξ-square criterion) in appearance of signs of abstinence: Piloerection [2]: 0.1847
Authentic differences (ξ-square criterion) in appearance of signs of abstinence: Ptosis [2]: 0.0201
Authentic differences (ξ-square criterion) in appearance of signs of abstinence: Rhinorrhea [2]: 0.3017
Authentic differences (ξ-square criterion) in appearance of signs of abstinence: Squeak when touched [2]: 0.1888
Nitrites, brainstem [3, 5]: 6.31 ± 0.58 nmol/mg of protein
Nitrites, cerebellum [3, 5]: 6.66 ± 0.63 nmol/mg of protein
Nitrites, cerebral cortex [3, 5]: 4.31 ± 0.37 nmol/mg of protein
Nitrites, hippocampus [3, 5]: 6.47 ± 0.72 nmol/mg of protein
Nitrites, hypothalamus [3, 5]: 6.77 ± 0.83 nmol/mg of protein
Nitrites, midbrain [3, 5]: 6.65 ± 0.70 nmol/mg of protein
Nitrites, striatum [3, 5]: 6.11 ± 0.29 nmol/mg of protein
Nitrites, brainstem [3, 6]: 6.57 ± 0.72 nmol/mg of protein
Nitrites, cerebellum [3, 6]: 5.46 ± 0.44 nmol/mg of protein
Nitrites, cerebral cortex [3, 6]: 4.72 ± 0.37 nmol/mg of protein
Nitrites, hippocampus [3, 6]: 5.44 ± 0.43 nmol/mg of protein
Nitrites, hypothalamus [3, 6]: 6.57 ± 0.88 nmol/mg of protein
Nitrites, midbrain [3, 6]: 5.50 ± 0.48 nmol/mg of protein
Nitrites, striatum [3, 6]: 3.57 ± 0.42 nmol/mg of protein
Activity of NOS, hippocampus [4, 5]: 3.09 ± 0.16 nmol/min/mg of protein
Activity of NOS, hypothalamus [4, 5]: 5.45 ± 0.24 nmol/min/mg of protein
Activity of NOS, midbrain [4, 5]: 2.60 ± 0.29 nmol/min/mg of protein
Activity of NOS, striatum [4, 5]: 1.26 ± 0.08 nmol/min/mg of protein
Activity of NOS, hippocampus [4, 6]: 2.70 ± 0.14 nmol/min/mg of protein
Activity of NOS, hypothalamus [4, 6]: 5.26 ± 0.28 nmol/min/mg of protein
Activity of NOS, midbrain [4, 6]: 1.83 ± 0.23 nmol/min/mg of protein
Activity of NOS, striatum [4, 6]: 1.24 ± 0.08 nmol/min/mg of protein
